The values below come from patent publication US20200093782A1, “ARIANTS OF 2-[6-(4-CHLOROPHENOXY)HEXYL]-OXIRANE-2-CARBOXYLIC ACID FOR USE IN THE TREATMENT, PREVENTION AND/OR AMELIORATION OF BRAIN DISEASES” (Meta-IQ ApS, priority 2016, published 2020).

The test system of series [1] is Male Wistar rats. As to the kind of experiment: Chronic mild stress (CMS) induced depression, sucrose consumption test. Type of series: in vivo, rat. From the text:
Treatment of stress-induced depression by blocking carnitine palmitoyl transferase 1 Rats were initially exposed to four weeks of CMS and subsequently exposed to stressors for another five weeks combined with drug or vehicle treatment (FIG. 7). The intake of sucrose solution was used in order to determine the depression status among rats. […] Moreover, statistical significant difference was found between Escitalopram and Etomoxir treatment in week two, four and five.
The percentage of animals responding over time receiving Etomoxir, Escitalopram or vehicle was compared (FIG. 8). The criterion for responders was set at 20% increase in intake of sucrose at the respective weeks compared to baseline prior to onset of treatment. The percentage of responding rats to Etomoxir treatment was higher than Escitalopram treatment.
Male Wistar rats were used for the CMS model. The weight of the rats was approximately 200 g when the experiment was initiated. The rats were housed singly with 12 h light/dark cycle and food and water was available ad libitum except when these parameters were applied as stress inducers. The following paragraphs concerning the CMS model was performed according to the protocol by Wiborg et al.
In order to quantify the hedonic state of the animals a sucrose consumption test was performed. The animals were trained in five weeks in order to consume a palatable sucrose solution. […]

In series [2] the test system is rats. Nature of the series: Sucrose consumption in rats after drinking the drug (test of crossing the BBB). Type of series: in vivo, rat. On the procedure: First rats are given R(+)-etomoxir ethyl ester formulated water (4 mg/day) every day for 20 days. Then once a week the sucrose consumption was measured. This study is designed to test is R(+)-etomoxir ethyl ester reaches the brain and therefore is it can cross the blood-brain-barrier (BBB).
Blocking CPT-1 in hypothalamus (applied in the drinking water) […] food intake.

Series [3] deals with rats. As to the kind of experiment: Short term memory test (3 corridors, alternation ratio) with or without MK801. Type of series: in vivo, rat. To be noted: MK801, sub cutaneous injection 1 hour before the test. The procedure: Rats are put in a compartment with 3 corridors. While looking for food, they will first go in 1 corridor, then when no food is found go in the next and when they have a good short term memory, go in the 3rd after that. (this is measured as alternation ratio) MK801 destroys short term memory. Etomoxir restores short term memory.
(§1) Etomoxir was given by sub cutaneous injection 1 hour before the test.

The subject of series [4] is rats. As to the kind of experiment: Long term memory test (light/dark shock compartment) with or without MK801. Type of series: in vivo, rat. To be noted: MK801, sub cutaneous injection 1 hour before the test. The procedure: Rats are put in a cage where in the dark part (where they like to be) the bedding gives a shock. They are put in the light part during training. The next day the rats are put in the light part again, when long term memory is there, they will not like to go in the dark part (shock compartment).
MK801, blocks the generation of memory.
as §1

For series [5], the system named is C57B16 mice. Nature of the series: Mouse EAE model (MOG 35-55), therapeutic treatment. Type of series: in vivo. To be noted: 1 mg/kg/day s.c. in olive oil for 2 weeks, start ten days after MOG injection. From the text:
Six week old C57B16 mice were bred and kept at conventional animal facilities at the University of Copenhagen. Female Lewis rats, 2 months old were used for this study.
All animals were weighed and scored clinically on a daily basis. During progression of EAE, leading to motor disabilities, animals had water in a Petri dish and soaked chow for easy intake to ensure sufficient intake of liquid and nutrients. Healthy animals were used as comparison and control of the EAE exposed animals. […]
The animals were monitored daily, weighed and clinically scored according to the following scale (Imrich and Harzer 2001): 0, no clinical signs of EAE; 1, loss of tail tonus; 2, mild paresis in one or both hindlimbs; 3, moderate paresis in one or both hindlimbs; 4, severe paresis or paralysis in one or both hindlimbs; 5, paralysis in one or both hindlimbs and visible paresis in one or both forelimbs, incontinence; 6, moribund. […]
CPT1 Blockers Have a Therapeutic Effect in Rodent Models with EAE. […] The animals were daily tested for body weight and disease score (Disease was scored as follows; 0=no disease, 1=limp tail, 2=hind-limb paresis, 3=hind-limb paralysis, 4=hind/forelimb paralysis, and 5=death). […]

Series [6] deals with Lewis rats. Nature of the series: Rat EAE model (MBP in CFA). Type of series: in vivo.

On to `CN(C)CCC[C@@]1(c2ccc(F)cc2)OCc2cc(C#N)ccc21` [Escitalopram], for which the “percentage of responding (healthy) rats” value in series [1] (5 weeks of treatment with continued stress, responder = 20% increase in sucrose intake vs baseline) is given as 57%. For the same compound, the “intake of sucrose solution compared to vehicle group” value in series [1] (five weeks of i.p. daily treatment under stress, Etomoxir 4 mg/kg, Escitalopram 5 mg/kg) is reported as “no significant difference”.

Regarding `CCOC(=O)[C@@]1(CCCCCCOc2ccc(Cl)cc2)CO1` [R(+)-etomoxir ethyl ester, R(+)-2-[6-(4-chlorophenoxy)hexyl]-oxirane-2-carboxylic acid ethyl ester], the sucrose consumption result in series [2] (4 mg/day in drinking water, every day for 20 days, measured once a week) was “increased sucrose consumption”. The “crossing of the blood-brain-barrier (BBB)” value in series [2] (oral (drinking water), concluded from increased sucrose consumption) was “can cross the blood-brain-barrier (BBB) and reach the brain”. In addition, the short term memory result in series [3] was “restores the animal's short term memory”. Moreover, in series [4], the “animals with restored long term memory” value came out at 40%. Further, in series [5], the “symptom-free animals at the end of the study” value is listed as 52%. Also, the “therapeutic effects when started at day 1 or day 5” value in series [6] (treatment from day 1 or day 5 after induction, compared with placebo) is on record as “significantly better therapeutic effects compared to IFNb”. For the same compound, the “disease- and symptom-free rats” value in series [6] (treatment started at day 7 after induction, read at day 11 (end of study)) was found to be 25%.
